Entries after “also recorded” stand apart in the source; their conditions may differ. Where a SMILES comes first, the peptide text is derived from it. [ ]: non-standard residue; d: D form.
Tests used:
[1] = test system: primary mouse keratinocytes (1° MK); assay: UVB-evoked Ca++ signaling in primary mouse keratinocytes (fluo-4 imaging); format: cell-based; settings: for ET1-augmented, UVB-induced Ca++ transients: UVB and ET1 co-exposure; for UVB-evoked Ca++ signaling (ΔF/F0): GSK205 20 μM
Experimental: Ca++ imaging of 1° MK was conducted following routine procedures. For UVB stimulation, a customized device was built. The system comprised a printed circuit board for electrical interconnects and mechanical support and an ultraviolet light-emitting diode (UV LED).
The operating wavelength was 295 nm (FIG. 2A), with a full-width half-max of 12 nm. The optical power was 500 mW. The focal point was aimed at the plane of the upper surface of the quartz coverslip, which was used to minimize UV absorption along the optical path towards the cells (FIG. 2A-FIG. 2C). The optical intensity at the focal point was estimated to be 150 mW/mm^2.
Ca++ imaging of mouse 1° MK in response to chemical activation of TRPV4 was conducted after loading with 2 μM fura2-AM, following a ratiometric Ca2+ imaging protocol with 340/380 nm […] for dual excitation. Ratios of emissions were acquired at 0.5 Hz. ΔR/R0 was determined as the fraction of the increase of a given ratio over baseline ratio, divided by baseline ratio. For stimulation of cells with UVB, where fura-2 was not suitable because of the proximity of stimulation with 340/380 nm and 295 nm, 2 μM fluo4-AM was used instead. Ca++ imaging was carried out at 488 nm excitation, acquisition of emissions at 0.5 Hz, expressed as ΔF/F0. In the custom-built UV optical system, UV LEDs were capped with a ball lens, a transparent optical window in the shape of a hemispherical lens (FIG. 2B). The LED output optical beam focused at 15-20 mm from the lens, with a spot diameter of approximately 1.5-2.0 mm (FIG. 2C). […] The thermal equilibration stage was set for physiological temperature.

ET1 [2] = assay: ET1 expression by UVB-exposed 1° MK (immunocytochemistry); format: cell-based, mouse; settings: cells preincubated with inhibitor
Experimental: 1° MK were exposed to UVB using the UV optical system (295 nm LED). 24 hours later the cells were fixed and fluorescently immunolabeled for ET1. Digital images were captured and subjected to morphometry.
Mouse keratinocytes were cultured on collagen coated quartz coverslips and then stimulated from the bottom using the previously mentioned UV optical system using the 295 nm LED. 24 hours later the cells were fixed in 4% formaldehyde in PBS for 20 minutes, permeabilized with 0.1% Triton X-100 in PBS for 10 minutes, washed, then blocked in 10% normal goat serum in PBS for 45 minutes. Coverslips were incubated overnight with primary antibody mouse anti-ET1 (1:200; Abcam), washed three times in PBS and incubated with secondary antibody for 2 hours at 25° C. Coverslips were washed three times in PBS, once with double-distilled H2O. Digital images were captured using a 40× immersion lens on the BX61 Olympus upright microscope. Morphometric analysis was conducted using ImageJ freeware with tailored regions-of-interest.

ET1 [3] = assay: ET1 secretion by non-stimulated 1° MK (ELISA); format: cell-based, mouse
TRPV4 = TRPV4 (Homo sapiens, UniProt Q9HBA0); assay: TRPV4-mediated calcium influx in N2a cells with targeted expression of human TRPV4; format: cell-based; parameters: expressed in transfected cells; host or cells: N2a cells; settings: 2.5 μM inhibitor, pre-incubation 10 min; TRPV4 activated with 10 nM GSK101
Experimental: Compounds (GSK205, 16-12, 16-13, 16-14, 16-18, 16-8, and 16-8/18hy) were tested for their effect on TRPV4-mediated calcium influx in N2a cultured cells with targeted expression of human TRPV4. Ca2+ imaging was performed according to Li et al. (Environ. Health Perspect. 2011, 119, 784-93) and Moore et al. (Proc. Natl. Acad. Sci. U.S.A. 2013, 110, E3225-E3234). Briefly, Ca2+ imaging of primary mouse epidermal keratinocytes (1° MK) in response to chemical activation of TRPV4 was conducted after loading with 2 μM fura2-AM, following a ratiometric Ca2+-imaging protocol with 340/380 nm blue light for dual excitation. Ratios of emissions were acquired at 0.5 Hz. ΔR/R0 was determined as the fraction of the increase of a given ratio over baseline ratio, divided by baseline ratio. For stimulation of cells with UVB, where fura-2 was not suitable because of the proximity of stimulation with 340/380 nm vs. 295 nm, 2 μM fluo4-AM was used instead. Ca2+ imaging was carried out at 488 nm excitation, acquisition of emissions at 0.5 Hz, expressed as ΔF/F0. TRPV4 was activated with 10 nM GSK101, a specific activator, which had no effect on RFP-transfected cells. Each of the […] compounds were added to a concentration of 2.5 μM, and its effect was observed.

human TRPV2 = target: T1, human TRPV2 (Homo sapiens, UniProt Q9Y5S1); assay: Ca2+ signal in N2a cells transfected with human TRPV2; format: cell-based; settings: stimulation with hypotonicity (260 mosmol/L)
T1 construct: expressed in transfected cells; host or cells: N2a cells
T1 sequence (Q9Y5S1 1-764): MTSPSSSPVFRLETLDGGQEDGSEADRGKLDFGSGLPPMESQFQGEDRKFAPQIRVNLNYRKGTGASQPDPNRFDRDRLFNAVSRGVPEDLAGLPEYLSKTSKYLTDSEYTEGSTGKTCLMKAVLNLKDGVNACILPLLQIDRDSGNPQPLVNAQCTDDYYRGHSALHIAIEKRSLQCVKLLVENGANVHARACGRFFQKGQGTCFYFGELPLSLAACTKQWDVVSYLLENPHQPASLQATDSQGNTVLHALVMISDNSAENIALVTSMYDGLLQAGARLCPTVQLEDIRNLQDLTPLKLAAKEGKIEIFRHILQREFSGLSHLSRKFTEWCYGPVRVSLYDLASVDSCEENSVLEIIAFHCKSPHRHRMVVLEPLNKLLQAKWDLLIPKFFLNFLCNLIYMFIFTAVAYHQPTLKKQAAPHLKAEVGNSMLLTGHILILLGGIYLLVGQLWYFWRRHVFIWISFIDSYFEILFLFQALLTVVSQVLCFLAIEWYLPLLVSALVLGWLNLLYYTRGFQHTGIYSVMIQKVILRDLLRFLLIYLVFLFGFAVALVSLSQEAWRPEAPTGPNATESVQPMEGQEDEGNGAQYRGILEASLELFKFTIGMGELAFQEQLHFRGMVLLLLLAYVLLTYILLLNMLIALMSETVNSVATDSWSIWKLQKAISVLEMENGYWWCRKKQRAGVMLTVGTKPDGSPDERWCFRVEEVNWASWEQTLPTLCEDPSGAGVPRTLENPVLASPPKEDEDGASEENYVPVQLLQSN
Experimental: (§1) Compounds were tested for their effect on TRPV1, TRPV2, and TRPV3. Methods were similar to those described in Example 15. Briefly, N2a cells were transfected with human TRPV1, TRPV2, or TRPV3. eGFP-transfection was used as control. For specific stimulation of TRPV1, 5 μM capsaicin was used. For stimulation of TRPV2, hypotonicity (260 mosmol/L) was used, based on previous reports of TRPV2 being osmotically responsive. N2a cells were not responsive to hypotonicity, and neither were control-transfected cells. For TRPV3-expressing cells, camphor (20% of a commercially available stock solution) was used. […] Stimulation and control protocols were applied as for TRPA1-expressing N2a cells as detailed above in Example 15.

human TRPA1 = target: T2, human TRPA1 (Homo sapiens, UniProt O75762); assay: Ca2+ transient in N2a cells transfected with human TRPA1; format: cell-based; settings: 5 μM compound
T2 construct: expressed in transfected cells; host or cells: N2a cells, pcDNA3.1 plasmid, co-transfected with an eGFP plasmid
Experimental: Compounds were tested for their effect on TRPA1. N2a permanent cells were transfected with human TRPA1 cDNA, using a pcDNA3.1 expression plasmid. They were co-transfected with eGFP-expressing plasmid, or, for control, with eGFP plasmid only.

[4] = Formalin-evoked nocifensive (rubbing) behavior, whisker-pad injection, in vivo pain model in mice; parameters: species or system mouse
Experimental: Compounds were tested for their effect in reducing pain using an in vivo pain model in mice. For mouse formalin-evoked irritant behavior measurements, mice were well-fed, well-rested, and tested at the same time of day, at the same time-point of their circadian rhythm. They were allowed to acclimate to a plexiglas chamber for at least 30 min before testing, and received 10 μL subcutaneous injection of 4% of formalin (diluted from an aqueous solution of commercial 37% formaldehyde with normal saline (NS)) through a 30-gauge needle into the right whiskerpad, as further detailed in Luccarini et al. (J. Pain, 2006, 7, 908-914). Normal saline was used as control injection. After injection, mice were immediately placed back into the chamber and the rubbing behavior was recorded by a private consumer-type video-camera for a 45 min observation period. The recording time was divided into 9 blocks of 5 min, and a nociceptive score was determined per block by measuring the time that the animals spent rubbing the injected area predominantly with the ipsilateral fore-paw and rarely with hind-paw. This rubbing behavior with fore-paw is evoked by pain, which is distinct from itch behavior. Behavioral analysis was conducted by observers blinded to treatment.
To investigate the effects of the specific compounds GSK205, 16-8, and 16-8/18hy on formalin-induced nociceptive behavior, mice received a single subcutaneous injection of the compounds into the whiskerpad (10 μL, dissolved in 4% DMSO) 15 min before formalin injection. Control animals received the same volume of NS, 4% DMSO.

human TRPV3 = target: T3, human TRPV3 (Homo sapiens, UniProt Q8NET8); assay: Ca2+ signal in N2a cells transfected with human TRPV3; format: cell-based; settings: stimulation with camphor
T3 construct: expressed in transfected cells; host or cells: N2a cells
T3 sequence (Q8NET8 1-790): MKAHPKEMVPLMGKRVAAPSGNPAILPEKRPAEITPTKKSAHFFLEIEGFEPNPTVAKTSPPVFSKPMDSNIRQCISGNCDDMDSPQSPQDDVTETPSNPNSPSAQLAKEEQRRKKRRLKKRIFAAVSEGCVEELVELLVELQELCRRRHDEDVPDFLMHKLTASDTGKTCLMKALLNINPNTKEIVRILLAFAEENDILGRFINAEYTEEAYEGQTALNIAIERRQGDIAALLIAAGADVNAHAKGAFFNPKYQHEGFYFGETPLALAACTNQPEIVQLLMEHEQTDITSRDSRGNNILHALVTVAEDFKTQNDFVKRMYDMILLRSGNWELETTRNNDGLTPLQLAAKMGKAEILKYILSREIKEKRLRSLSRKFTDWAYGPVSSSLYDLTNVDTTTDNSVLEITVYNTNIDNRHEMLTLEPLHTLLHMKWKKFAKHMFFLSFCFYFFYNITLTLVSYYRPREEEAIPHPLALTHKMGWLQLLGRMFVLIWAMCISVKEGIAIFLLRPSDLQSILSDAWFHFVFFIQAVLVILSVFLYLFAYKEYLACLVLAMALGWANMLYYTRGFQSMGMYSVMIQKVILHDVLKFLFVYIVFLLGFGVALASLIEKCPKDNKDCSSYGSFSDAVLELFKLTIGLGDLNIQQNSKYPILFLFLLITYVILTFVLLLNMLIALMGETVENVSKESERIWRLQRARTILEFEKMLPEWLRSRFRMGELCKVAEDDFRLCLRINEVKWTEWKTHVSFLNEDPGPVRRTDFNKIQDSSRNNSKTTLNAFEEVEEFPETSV
Experimental: as §1

human TRPV1 = target: T4, human TRPV1 (Homo sapiens, UniProt Q8NER1); assay: Ca2+ signal in N2a cells transfected with human TRPV1; format: cell-based; settings: stimulation with 5 μM capsaicin
T4 construct: expressed in transfected cells; host or cells: N2a cells
Experimental: as §1

Sequence of TRPV4 (Q9HBA0 whole entry): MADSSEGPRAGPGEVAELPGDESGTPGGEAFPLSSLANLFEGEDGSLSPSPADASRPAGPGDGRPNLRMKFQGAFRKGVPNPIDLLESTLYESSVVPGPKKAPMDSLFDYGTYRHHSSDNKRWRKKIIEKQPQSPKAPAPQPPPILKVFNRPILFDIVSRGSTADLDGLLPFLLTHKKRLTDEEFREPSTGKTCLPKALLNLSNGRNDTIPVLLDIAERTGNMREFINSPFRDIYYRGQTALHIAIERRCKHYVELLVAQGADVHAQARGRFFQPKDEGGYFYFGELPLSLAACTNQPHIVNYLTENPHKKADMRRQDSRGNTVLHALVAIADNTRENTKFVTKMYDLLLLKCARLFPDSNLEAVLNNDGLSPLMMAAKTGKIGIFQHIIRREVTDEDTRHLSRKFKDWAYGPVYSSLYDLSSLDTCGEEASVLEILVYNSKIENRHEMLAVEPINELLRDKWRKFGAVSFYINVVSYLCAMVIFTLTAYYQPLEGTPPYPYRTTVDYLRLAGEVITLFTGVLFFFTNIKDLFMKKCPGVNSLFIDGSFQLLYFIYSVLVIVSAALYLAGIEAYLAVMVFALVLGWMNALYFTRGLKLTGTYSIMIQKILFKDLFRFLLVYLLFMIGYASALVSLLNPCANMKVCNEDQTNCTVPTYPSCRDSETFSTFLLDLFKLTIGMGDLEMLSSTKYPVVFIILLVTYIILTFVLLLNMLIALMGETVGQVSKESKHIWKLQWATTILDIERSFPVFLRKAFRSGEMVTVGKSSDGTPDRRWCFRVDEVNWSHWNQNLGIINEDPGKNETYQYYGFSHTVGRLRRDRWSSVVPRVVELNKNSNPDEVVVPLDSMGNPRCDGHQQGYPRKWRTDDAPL
T2 sequence (O75762 whole entry): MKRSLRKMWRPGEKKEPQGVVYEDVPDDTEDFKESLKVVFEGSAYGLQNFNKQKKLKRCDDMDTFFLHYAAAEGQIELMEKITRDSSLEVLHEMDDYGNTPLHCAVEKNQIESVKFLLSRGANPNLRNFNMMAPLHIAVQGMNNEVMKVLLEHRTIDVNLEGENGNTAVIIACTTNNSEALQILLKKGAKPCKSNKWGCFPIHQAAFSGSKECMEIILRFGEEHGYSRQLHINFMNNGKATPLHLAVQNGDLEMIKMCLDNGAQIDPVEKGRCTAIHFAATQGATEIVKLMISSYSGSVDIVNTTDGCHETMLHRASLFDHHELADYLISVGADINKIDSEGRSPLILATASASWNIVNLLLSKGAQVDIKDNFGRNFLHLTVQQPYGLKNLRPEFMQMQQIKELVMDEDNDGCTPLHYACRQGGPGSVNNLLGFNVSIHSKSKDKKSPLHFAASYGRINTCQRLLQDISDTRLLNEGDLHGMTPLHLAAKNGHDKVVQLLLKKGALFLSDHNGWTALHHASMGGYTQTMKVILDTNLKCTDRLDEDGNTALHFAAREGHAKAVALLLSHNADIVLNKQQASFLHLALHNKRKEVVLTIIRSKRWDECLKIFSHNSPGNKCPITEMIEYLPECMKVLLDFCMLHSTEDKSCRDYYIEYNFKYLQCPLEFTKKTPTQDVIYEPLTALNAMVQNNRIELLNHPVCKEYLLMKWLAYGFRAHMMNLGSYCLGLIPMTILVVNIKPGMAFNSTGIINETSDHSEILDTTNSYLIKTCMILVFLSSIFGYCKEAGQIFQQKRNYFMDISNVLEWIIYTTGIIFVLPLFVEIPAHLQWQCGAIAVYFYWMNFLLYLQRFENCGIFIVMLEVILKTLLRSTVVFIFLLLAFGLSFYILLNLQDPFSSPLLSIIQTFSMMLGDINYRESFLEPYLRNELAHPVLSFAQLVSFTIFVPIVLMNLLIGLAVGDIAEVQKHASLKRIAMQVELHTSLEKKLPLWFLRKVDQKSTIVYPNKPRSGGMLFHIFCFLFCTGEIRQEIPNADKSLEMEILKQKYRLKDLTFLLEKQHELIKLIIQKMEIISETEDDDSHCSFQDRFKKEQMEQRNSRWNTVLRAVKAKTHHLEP
T4 sequence (Q8NER1 whole entry): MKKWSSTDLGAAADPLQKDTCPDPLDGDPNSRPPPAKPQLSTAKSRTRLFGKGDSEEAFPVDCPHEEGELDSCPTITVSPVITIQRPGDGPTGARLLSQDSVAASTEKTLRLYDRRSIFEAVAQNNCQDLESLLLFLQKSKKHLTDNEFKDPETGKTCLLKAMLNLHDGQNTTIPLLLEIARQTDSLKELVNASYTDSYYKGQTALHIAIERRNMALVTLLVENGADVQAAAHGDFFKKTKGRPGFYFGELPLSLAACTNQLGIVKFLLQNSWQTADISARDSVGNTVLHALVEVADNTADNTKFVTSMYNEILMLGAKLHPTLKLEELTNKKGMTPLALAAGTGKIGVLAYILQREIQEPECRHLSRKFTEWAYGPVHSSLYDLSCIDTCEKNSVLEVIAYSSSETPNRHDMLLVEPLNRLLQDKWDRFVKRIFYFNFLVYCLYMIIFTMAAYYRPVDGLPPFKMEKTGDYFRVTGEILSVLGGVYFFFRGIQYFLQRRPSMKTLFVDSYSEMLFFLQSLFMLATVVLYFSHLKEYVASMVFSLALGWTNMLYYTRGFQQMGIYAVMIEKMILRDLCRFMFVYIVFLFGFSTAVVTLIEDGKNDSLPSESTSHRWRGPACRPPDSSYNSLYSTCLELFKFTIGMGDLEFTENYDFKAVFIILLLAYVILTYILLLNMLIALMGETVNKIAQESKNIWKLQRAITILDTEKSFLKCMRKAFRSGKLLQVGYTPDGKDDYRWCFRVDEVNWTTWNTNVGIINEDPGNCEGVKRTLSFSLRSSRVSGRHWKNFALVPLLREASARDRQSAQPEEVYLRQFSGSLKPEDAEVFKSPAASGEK

CCCC[C@@H](NC(=O)[C@@H](Cc1cn(C(=O)OC)c2ccccc12)NC(=O)[C@H](CC(C)(C)C)NC(=O)N1[C@H](C)CCC[C@@H]1C)C(=O)O [BQ788]
ET1-augmented, UVB-induced Ca++ transients [1]: attenuated

COc1ccc2c(c1)CC[C@@H]1[C@@H]2CC[C@]2(C)[C@@H](NCCCCCCN3C(=O)C=CC3=O)CC[C@@H]12 [Compound U73122]
ET1 immunoreactivity (ET1 [2]): dampened ET1 expression; also recorded: significant down-regulation
UVB-evoked Ca++ signaling (ΔF/F0) [1]: virtually eliminated; also recorded: strongly reduced
ET1 secretion into supernatant (relative ET1 concentration) (ET1 [3]): down-regulation

CCN(CCc1ccc(Nc2nc(-c3ccccc3)cs2)cc1)Cc1ccccc1 [Compound 16-8/18hy]
inhibition of TRPV4-mediated calcium influx (peak calcium concentration in the cells) (TRPV4): did not show enhanced inhibition over 16-8
Ca2+ transience on TRPV2 stimulation (human TRPV2): not affected
inhibitory activity against human TRPA1 (human TRPA1): inhibitory activity
formalin-induced nocifensive behavior at the 45-min time-point ([4]; 0.5 mM/10 μL, 45-min time-point): reversal to control levels
formalin-induced nocifensive behavior, time course ([4]; 0.5 mM/10 μL, FIG. 21D): significantly attenuated nocifensive behavior
formalin-induced nocifensive behavior, quantitation, in particular second phase ([4]; compounds pre-injected at 0.5 mM/10 μL into whiskerpad 15 min before 4% formalin): significant attenuation of nocifensive behavior
Ca2+ transience on TRPV3 stimulation (human TRPV3): not affected
Ca2+ transience on TRPV1 stimulation (human TRPV1): not affected

CCN(CCc1ccc(Nc2nc(-c3cccnc3)cs2)cc1)Cc1ccccc1 [Compound 16-18]
inhibition of TRPV4-mediated calcium influx (peak calcium concentration in the cells) (TRPV4): most potent

CC(C)NCCN(C(C)C)S(=O)(=O)c1ccc(Cl)cc1Cl [RN1734]
ET1 immunoreactivity (ET1 [2]): diminished; also recorded: significant down-regulation
ET1 secretion into supernatant (relative ET1 concentration) (ET1 [3]): significant down-regulation

O=C(O)C(Cc1ccc2c(c1)oc1ccccc12)NCP(=O)(O)O (centres unmarked) [CGS35066]
ET1 immunoreactivity (ET1 [2]): significant down-regulation
UVB-evoked Ca++ signaling (ΔF/F0) [1]: significantly diminished; also recorded: significant attenuation
ET1 secretion into supernatant (relative ET1 concentration) (ET1 [3]): down-regulation

CC(C)C[C@@H]1NC(=O)[C@@H](C(C)C)NC(=O)[C@@H]2CCCN2C(=O)[C@@H](CC(=O)O)NC(=O)[C@@H](Cc2c[nH]c3ccccc23)NC1=O [BQ123] (cyclo(L[dW][dD]P[dV]))
ET1-augmented, UVB-induced Ca++ transients [1]: attenuated

C=C(C)CCO[P@@](=O)(O)OP(=O)(O)O [IPP, isopentenyl pyrophosphate]
UVB-evoked Ca++ signaling (ΔF/F0) [1]: no effect; also recorded: not inhibited

From patent US11014896B2, “TRPA1 and TRPV4 inhibitors and methods of using the same for organ-specific inflammation and itch” (Duke University, priority 2014, dated 2021)
